Measurements taken from PubChem BioAssay AID485374 (Sanford-Burnham Center for Chemical Genomics, 2010).
Where “and” joins values, the source holds several entries; their conditions need not be identical. Equal values may be shown once. Calls of active or inactive are those of the source. The rule behind the calls is not given here.

Assay: inhibitors of enzymatic SUMO conjugation, SAR follow-up, biochemical, AlphaScreen (AID 485374)
Settings: AlphaScreen biochemical SUMOylation assay

Structure (SMILES) | IC50
CCCCn1c(NC(=O)C2CCCCC2)c(C#N)c2nc3ccccc3nc21 | 2.39 µM
CCC(=O)Nc1c(S(=O)(=O)c2ccccc2)c2nc3ccccc3nc2n1Cc1ccccc1 | 43.4 µM
C=CC[C@@H](N(Cc1ccccc1)/C(=C\C(=O)OC)C(=O)OC)C12C=CC(O1)C(C(=O)OC)=C2C(=O)OC (some centres not stated) | 21.3 µM
C=CC[C@H](Nc1ccc(C)cc1)C12C=CC(O1)C(C(=O)OC)=C2C(=O)OC (some centres not stated) | 11.7 µM
Nc1c(C(=O)NCc2ccco2)c2nc3ccccc3nc2n1Cc1ccccc1 | 41.2 µM
CCC[C@H](Nc1ccccc1)C12C=CC(O1)C(C(=O)OC)=C2C(=O)OC (some centres not stated) | 2.87 µM
C=C[C@H](Nc1ccccc1)C12C=CC(O1)C(C(=O)OC)=C2C(=O)OC (some centres not stated) | 10.4 µM
COCCn1c(NC(=O)c2ccc(Cl)cc2)c(S(=O)(=O)c2ccc(C)cc2)c2nc3ccccc3nc21 | 6.59 µM
COc1ccc(CN2C(=O)C(NC(C)=O)c3ccccc32)cc1 (configuration not stated) | > 100 µM (inactive)
COC(=O)C1=C(C(=O)OC)C2([C@H](C)Nc3ccc(Cl)cc3)C=CC1O2 (some centres not stated) | 11.5 µM
CCCCn1c(NC(=O)c2ccc(Cl)cc2)c(C#N)c2nc3ccccc3nc21 | 2.1 µM
COC(=O)C1=C(C(=O)O)C2C=CC1([C@@H](Cc1ccccc1)Nc1ccccc1)O2 (some centres not stated) | 2.87 µM
CCCCn1c(NC(=O)c2ccccc2Cl)c(S(=O)(=O)c2ccccc2)c2nc3ccccc3nc21 | 5.63 µM
CCCCn1c(NC(=O)c2ccccc2)c(C#N)c2nc3ccccc3nc21 | 2.93 µM and 1.2 µM
CCCCn1c(NC(=O)c2ccc(F)cc2)c(S(=O)(=O)c2ccc(C)cc2)c2nc3ccccc3nc21 | 6.24 µM
COC(=O)C1=C(C(=O)OC)C2([C@@H](Cc3ccccc3)Nc3ccc(Cl)cc3)C=CC1O2 (some centres not stated) | 0.713 µM
CCCCn1c(NC(=O)c2ccco2)c(C#N)c2nc3ccccc3nc21 | 3.45 µM
N#Cc1c(NC(=O)c2ccccc2Cl)n(C2CCCCC2)c2nc3ccccc3nc12 | 1.95 µM
N#Cc1c(NC(=O)c2ccccc2Cl)n(Cc2ccccc2)c2nc3ccccc3nc12 | 2.44 µM
S=c1[nH]nc(-c2cc(-c3ccccc3)n[nH]2)n1N=Cc1ccc(Br)s1 | 2.07 µM
C=CC[C@@H](Nc1ccc(Cl)cc1)C12C=CC(O1)C(C(=O)OC)=C2C(=O)OC (some centres not stated) | 3.84 µM
C=CC[C@@H](Nc1ccc(OC)cc1)C12C=CC(O1)C(C(=O)OC)=C2C(=O)OC (some centres not stated) | 22.3 µM
COCCNC(=O)c1c(NC(=O)c2ccccc2)n(Cc2ccccc2)c2nc3ccccc3nc12 | 51.3 µM
COc1ccc2c(c1)C(NC(C)=O)C(=O)N2CCN1CCOCC1 (configuration not stated) | 5.02 µM
CCCCNC(=O)c1c(NC(=O)c2ccccc2)n(Cc2ccccc2)c2nc3ccccc3nc12 | 91.1 µM
COC(=O)C1=C(C(=O)OC)C2([C@@H](Cc3ccccc3)Nc3ccc(OC)cc3)C=CC1O2 (some centres not stated) | 4.87 µM

Structure (SMILES) | IC50
C=CC[C@H](Nc1ccc(Cl)cc1)C12C=CC(O1)C(C(=O)OC)=C2C(=O)OC (some centres not stated) | 4.18 µM
COC(=O)C1=C(C(=O)OC)C2([C@H](Cc3ccccc3)Nc3ccccc3)C=CC1O2 (some centres not stated) | 5.04 µM
C=C[C@@H](Nc1ccccc1)C12C=CC(O1)C(C(=O)OC)=C2C(=O)OC (some centres not stated) | 7.23 µM
COC(=O)C1=C(C(=O)OC)C2([C@@H](C)Nc3ccc(OC)cc3)C=CC1O2 (some centres not stated) | 55.6 µM
COC(=O)C1=C(C(=O)OC)C2([C@@H](Cc3ccccc3)Nc3ccccc3)C=CC1O2 (some centres not stated) | 0.329 µM
COC(=O)C1=C(C(=O)OC)C2(C(Cc3ccc(OC(F)(F)F)cc3)Nc3ccccc3)C=CC1O2 (configuration not stated) | 0.611 µM
CCCCn1c(NC(=O)c2ccc(F)cc2)c(C#N)c2nc3ccccc3nc21 | 0.757 µM
CCCCCn1c(NC(=O)c2ccco2)c(C(=O)OCC)c2nc3ccccc3nc21 | 4.9 µM
C=CC[C@H](Nc1ccc(OC)cc1)C12C=CC(O1)C(C(=O)OC)=C2C(=O)OC (some centres not stated) | 17.7 µM
COC(=O)C1=C(C(=O)OC)C2([C@H](C)Nc3ccccc3)C=CC1O2 (some centres not stated) | 23.9 µM
COc1ccc2c(c1)C(NC(C)=O)C(=O)N2CCc1ccccc1 (configuration not stated) | > 100 µM (inactive)
COC(=O)C1=C(C(=O)OC)C2([C@@H](Cc3ccccc3)Nc3ccc(C)cc3)C=CC1O2 (some centres not stated) | 2.96 µM
COc1ccc2c(c1)C(=O)C(=O)N2CCN1CCOCC1 | 76.8 µM
COC(=O)C1=C(C(=O)OC)C2(C(Cc3ccc(F)cc3)Nc3ccccc3)C=CC1O2 (configuration not stated) | 0.527 µM
COc1ccc2c(c1)C(NC(C)=O)C(=O)N2CC1COc2ccccc2O1 (configuration not stated) | 66.3 µM
c1ccc(CC(Nc2ccccc2)c2ccco2)cc1 (configuration not stated) | > 100 µM (inactive)
C=CCC(c1ccco1)N(Cc1ccccc1)/C(=C/C(=O)OC)C(=O)OC (configuration not stated) | > 100 µM (inactive)
COC(=O)[C@@H]1C2CCC([C@@H](Cc3ccccc3)Nc3ccccc3)(O2)[C@@H]1C(=O)OC (some centres not stated) | > 100 µM (inactive)
CCCCn1c(NC(=O)c2ccc(OC)cc2)c(S(=O)(=O)c2ccc(C)cc2)c2nc3ccccc3nc21 | 8.08 µM
CCCCn1c(NC(=O)CC)c(S(=O)(=O)c2ccc(C)cc2)c2nc3ccccc3nc21 | 33.1 µM
CCCCn1c(NC(C)=O)c(C#N)c2nc3ccccc3nc21 | 8.11 µM
COC(=O)C1=C(C(=O)OC)C2([C@H](Cc3ccccc3)Nc3ccc(C)cc3)C=CC1O2 (some centres not stated) | 7.19 µM
COC(=O)C1=C(C(=O)OC)C2([C@@H](C)Nc3ccc(Cl)cc3)C=CC1O2 (some centres not stated) | 18.2 µM
C=CCC(Nc1ccccc1)C12C=CC(O1)C(C(=O)OC)=C2C(=O)OC (configuration not stated) | 1.36 µM
CCCCn1c(NC(=O)c2ccccc2)c(S(=O)(=O)c2ccc(C)cc2)c2nc3ccccc3nc21 | 9.52 µM and 6.5 µM
COc1ccc2c(c1)C(NC(C)=O)C(=O)N2CCOc1ccccc1 (configuration not stated) | 70.2 µM

Structure (SMILES) | IC50
COC(=O)C=C(NC(CO)(CO)CO)C(=O)OC | > 100 µM (inactive)
Cc1cc(C)c2c(c1)C(=O)C(=O)N2CCN1CCOCC1 | > 100 µM (inactive)
COC(=O)C1=C(C(=O)OC)C2([C@@H](C)Nc3ccc(C)cc3)C=CC1O2 (some centres not stated) | 35.1 µM
CCC[C@@H](Nc1ccccc1)C12C=CC(O1)C(C(=O)OC)=C2C(=O)OC (some centres not stated) | 0.533 µM
C=CC[C@@H](Nc1ccccc1)C12C=CC(O1)C(C(=O)OC)=C2C(=O)OC (some centres not stated) | 1.8 µM
COc1cc(/C=C2\C(=O)N(c3ccccc3)N=C2C)ccc1OCc1ccccc1 | > 100 µM (inactive)
COC(=O)C1=C(C(=O)OC)C2([C@H](Cc3ccccc3)Nc3ccc(OC)cc3)C=CC1O2 (some centres not stated) | 13 µM
COC(=O)C1=C(C(=O)OC)C2([C@H](Cc3ccccc3)Nc3ccc(Cl)cc3)C=CC1O2 (some centres not stated) | 2.56 µM
C=CC[C@H](N(Cc1ccccc1)/C(=C\C(=O)OC)C(=O)OC)C12C=CC(O1)C(C(=O)OC)=C2C(=O)OC (some centres not stated) | 15.1 µM
CCCCn1c(N)c(C#N)c2nc3ccccc3nc21 | 13.3 µM
CCCCn1c(N)c(S(=O)(=O)c2ccc(C)cc2)c2nc3ccccc3nc21 | > 100 µM (inactive)
CCCC1=NN(c2ccccc2)C(=O)/C1=C\c1ccc(O)cc1 | 19.2 µM
CC(=O)NC1C(=O)N(CCN2CCOCC2)c2ccc(C)cc21 (configuration not stated) | > 100 µM (inactive)
CCCCn1c(NC(=O)c2cccc(Cl)c2)c(C#N)c2nc3ccccc3nc21 | 1.62 µM
C=CC[C@H](Nc1ccccc1)C12C=CC(O1)C(C(=O)OC)=C2C(=O)OC (some centres not stated) | 5.95 µM
COC(=O)C1=C(C(=O)OC)C2([C@@H](Cc3ccc(C)cc3)Nc3ccccc3)C=CC1O2 (some centres not stated) | 0.369 µM
CCCCn1c(NC(=O)c2ccccc2Cl)c(C#N)c2nc3ccccc3nc21 | 20.1 µM
COC(=O)C1=C(C(=O)OC)C2([C@@H](C)Nc3ccccc3)C=CC1O2 (some centres not stated) | 7.79 µM
COc1cc(/C=C2\C(=O)N(c3ccccc3)N=C2C)ccc1OC(=O)c1cccs1 | 15.8 µM
CCCN1C(=O)C(NC(C)=O)c2cc(OC)ccc21 (configuration not stated) | > 100 µM (inactive)
CCCCn1c(NC(=O)c2ccco2)c(S(=O)(=O)c2ccc(C)cc2)c2nc3ccccc3nc21 | 7.9 µM
COC(=O)C1=C(C(=O)OC)C2([C@@H](Cc3ccc(OC)cc3)Nc3ccccc3)C=CC1O2 (some centres not stated) | 0.614 µM
COC(=O)C1=C(C(=O)OC)C2([C@H](Cc3ccc(C)cc3)Nc3ccccc3)C=CC1O2 (some centres not stated) | 2.19 µM
C=CC[C@@H](Nc1ccc(C)cc1)C12C=CC(O1)C(C(=O)OC)=C2C(=O)OC (some centres not stated) | 12.4 µM
COc1cc(/C=C2\C(=O)N(c3ccccc3)N=C2C)ccc1O | 21.1 µM and 25.5 µM
